Data on 18 compounds can be found in patent publication US20230365537A1, “POLO LIKE KINASE 4 INHIBITORS” (ORIC Pharmaceuticals, Inc., priority 2021, published 2023).

In general, IC50 refers to the concentration at which inhibition is half-maximal.

SMILES strings stand for the structures.

Experiment [1] deals with human recombinant PLK4 (Homo sapiens (Human), UniProt O00444). In words: PLK4 Biochemical Assay (ADP-Glo). Particulars: 0.5 nM PLK4, 8.0 µM ATP, 4.7 µM MBP, 6 hours at RT. The procedure, abridged:
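Recombinant human PLK4 (added at 1.0 nM) was preincubated 15 min at RT with compound in 50 mM HEPES pH 7.5, 10 mM MgCl2, 1 mM EGTA, 1 mM DTT, 0.01% Brij-35, 0.01% BSA. ADP formed was detected by ADP-Glo luminescence (40 min ATP depletion, 30 min detection). IC50 came from a four-parameter fit.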
On the technique in general: ADP-Glo first removes unused ATP, then detects ADP through luciferase.

In experiment [2] the target is human recombinant Aurora A (Homo sapiens (Human), UniProt O14965). In words: Aurora A Kinase Biochemical Assay (ADP-Glo). Particulars: ratio of Aurora A IC50 to PLK4 IC50 (selectivity).
Chain of human recombinant Aurora A (O14965 whole entry): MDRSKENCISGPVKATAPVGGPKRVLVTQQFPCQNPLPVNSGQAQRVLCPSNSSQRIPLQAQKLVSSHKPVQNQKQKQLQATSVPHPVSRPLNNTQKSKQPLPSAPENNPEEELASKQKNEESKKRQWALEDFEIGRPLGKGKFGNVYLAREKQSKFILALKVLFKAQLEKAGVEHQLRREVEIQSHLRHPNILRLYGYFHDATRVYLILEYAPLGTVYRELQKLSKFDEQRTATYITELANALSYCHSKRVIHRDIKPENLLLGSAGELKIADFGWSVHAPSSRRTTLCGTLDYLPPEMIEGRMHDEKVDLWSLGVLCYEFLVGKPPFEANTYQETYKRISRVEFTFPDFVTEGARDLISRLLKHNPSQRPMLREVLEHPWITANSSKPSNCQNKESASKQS
The target of experiment [3] is human recombinant Aurora B (Homo sapiens (Human), UniProt Q96GD4). In words: Aurora B Kinase Biochemical Assay (ADP-Glo). Particulars: ratio of Aurora B IC50 to PLK4 IC50 (selectivity). The procedure, abridged: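 Recombinant human Aurora B (20 nM in pH 7.5 HEPES buffer with MgCl2, EGTA, DTT, Brij-35, BSA) preincubated with compound 15 min at RT. ADP formed quantified by ADP-Glo luminescence after ATP depletion (40 min) and detection (30 min). IC50 from four-parameter non-linear regression.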
Chain of human recombinant Aurora B (Q96GD4 whole entry): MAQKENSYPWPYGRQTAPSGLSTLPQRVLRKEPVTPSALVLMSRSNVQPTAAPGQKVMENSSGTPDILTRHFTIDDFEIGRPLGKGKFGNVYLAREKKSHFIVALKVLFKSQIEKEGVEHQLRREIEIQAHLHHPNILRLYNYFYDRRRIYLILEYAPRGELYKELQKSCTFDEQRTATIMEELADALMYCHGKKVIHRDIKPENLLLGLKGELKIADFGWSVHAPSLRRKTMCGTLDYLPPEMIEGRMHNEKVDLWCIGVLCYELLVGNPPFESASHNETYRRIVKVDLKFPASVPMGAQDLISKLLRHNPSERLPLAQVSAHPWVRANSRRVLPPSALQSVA

Chain of human recombinant PLK4 (O00444 whole entry): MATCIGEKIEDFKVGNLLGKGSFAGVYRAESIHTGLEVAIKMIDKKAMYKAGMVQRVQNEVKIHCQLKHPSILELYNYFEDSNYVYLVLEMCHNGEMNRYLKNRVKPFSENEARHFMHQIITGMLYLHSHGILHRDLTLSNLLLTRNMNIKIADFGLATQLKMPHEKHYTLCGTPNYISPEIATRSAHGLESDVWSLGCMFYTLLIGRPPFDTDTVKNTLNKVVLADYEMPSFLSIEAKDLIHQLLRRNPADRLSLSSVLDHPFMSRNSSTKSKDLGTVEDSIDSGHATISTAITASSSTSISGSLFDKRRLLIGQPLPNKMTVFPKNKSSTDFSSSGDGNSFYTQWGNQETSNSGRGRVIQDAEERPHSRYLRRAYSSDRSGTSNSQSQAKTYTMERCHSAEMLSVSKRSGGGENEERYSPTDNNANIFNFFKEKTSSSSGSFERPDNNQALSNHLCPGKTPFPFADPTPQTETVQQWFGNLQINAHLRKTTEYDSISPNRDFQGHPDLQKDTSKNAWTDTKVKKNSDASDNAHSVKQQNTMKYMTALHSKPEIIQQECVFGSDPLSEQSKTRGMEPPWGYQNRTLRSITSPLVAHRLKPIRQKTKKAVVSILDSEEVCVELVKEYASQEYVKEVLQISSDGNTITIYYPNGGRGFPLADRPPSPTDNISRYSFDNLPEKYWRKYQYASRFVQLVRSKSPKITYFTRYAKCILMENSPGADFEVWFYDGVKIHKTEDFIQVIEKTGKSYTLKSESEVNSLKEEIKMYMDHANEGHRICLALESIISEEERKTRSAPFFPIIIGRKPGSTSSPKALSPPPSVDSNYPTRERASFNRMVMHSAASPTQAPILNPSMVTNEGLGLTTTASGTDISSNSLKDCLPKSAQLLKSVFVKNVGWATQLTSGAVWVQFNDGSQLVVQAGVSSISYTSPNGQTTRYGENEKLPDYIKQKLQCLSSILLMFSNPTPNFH

With `COc1cnc(C)nc1Nc1n[nH]c2c(F)c([C@@H]3C[C@@]34C(=O)Nc3ccc(F)cc34)ccc12` [Example 142, (1R,2R)-5′-fluoro-2-{7-fluoro-3-[(5-methoxy-2-methylpyrimidin-4-yl)amino]-1H-indazol-6-yl}spiro[cyclopropane-1,3′-indol]-2′(1′H)-one], the IC50 in experiment [1] amounted to 21.5 nM. The “[Aurora A IC50 (nM)]/[PLK4 IC50 (nM)]” value in experiment [2] is 13.818. Moreover, in experiment [3], the “[Aurora B IC50 (nM)]/[PLK4 IC50 (nM)]” value is 26.308.
For the compound `Cc1ncc(OC(F)F)c(Nc2n[nH]c3c(F)c([C@@H]4C[C@@]45C(=O)Nc4ccc(F)cc45)ccc23)n1` [Example 143, (1R,2R)-2-(3-{[5-(difluoromethoxy)-2-methylpyrimidin-4-yl]amino}-7-fluoro-1H-indazol-6-yl)-5′-fluorospiro[cyclopropane-1,3′-indol]-2′(1′H)-one], in experiment [1], the IC50 came out at 84.7 nM. In experiment [2], the “[Aurora A IC50 (nM)]/[PLK4 IC50 (nM)]” value amounted to 14.621. For the same compound, the “[Aurora B IC50 (nM)]/[PLK4 IC50 (nM)]” value in experiment [3] came out at 40.607.
In the case of `COc1ccc2c(c1)[C@]1(C[C@H]1c1ccc3c(Nc4cc(C(C)C)nc(C)n4)n[nH]c3c1)C(=O)N2` [Example 151, (1R,2S)-5′-methoxy-2-(3-{[2-methyl-6-(propan-2-yl)pyrimidin-4-yl]amino}-1H-indazol-6-yl)spiro[cyclopropane-1,3′-indol]-2′(1′H)-one], the concentration for half-maximal inhibition (IC50) in experiment [1] worked out at 9.74 nM. In addition, the “[Aurora A IC50 (nM)]/[PLK4 IC50 (nM)]” value in experiment [2] is recorded as 61.2440. For the same compound, the “[Aurora B IC50 (nM)]/[PLK4 IC50 (nM)]” value in experiment [3] worked out at 96.3153.
Regarding `CCc1cnc(C)nc1Nc1n[nH]c2cc([C@@H]3C[C@@]34C(=O)Nc3ccc(OC)cc34)ccc12` [Example 152, (1R,2S)-2-{3-[(5-ethyl-2-methylpyrimidin-4-yl)amino]-1H-indazol-6-yl}-5′-methoxyspiro[cyclopropane-1,3′-indol]-2′(1′H)-one], the IC50 in experiment [1] came out at 7.16 nM. In experiment [2], the “[Aurora A IC50 (nM)]/[PLK4 IC50 (nM)]” value is 502.7949. In addition, the “[Aurora B IC50 (nM)]/[PLK4 IC50 (nM)]” value in experiment [3] is given as 107.8116.
On to `COc1ccc2c(c1)[C@]1(C[C@H]1c1ccc3c(Nc4ncc(C(F)(F)F)cc4OC)n[nH]c3c1)C(=O)N2` [Example 158, (1R,2S)-5′-methoxy-2-(3-{[3-methoxy-5-(trifluoromethyl)pyridin-2-yl]amino}-1H-indazol-6-yl)spiro[cyclopropane-1,3′-indol]-2′(1′H)-one], for which the half-maximal inhibitory concentration (IC50) in experiment [1] was determined as 8.59 nM. Besides, in experiment [2], the “[Aurora A IC50 (nM)]/[PLK4 IC50 (nM)]” value is 704.9238. In addition, the “[Aurora B IC50 (nM)]/[PLK4 IC50 (nM)]” value in experiment [3] stood at 51.7286.
As to `COc1ccc2c(c1)[C@]1(C[C@H]1c1ccc3c(Nc4nc(C)ncc4SC)n[nH]c3c1)C(=O)N2` [Example 162, (1R,2S)-5′-methoxy-2-(3-{[2-methyl-5-(methylsulfanyl)pyrimidin-4-yl]amino}-1H-indazol-6-yl)spiro[cyclopropane-1,3′-indol]-2′(1′H)-one], the IC50 in experiment [1] was 8.39 nM. Further, in experiment [2], the “[Aurora A IC50 (nM)]/[PLK4 IC50 (nM)]” value is reported as 648.6776. For the same compound, in experiment [3], the “[Aurora B IC50 (nM)]/[PLK4 IC50 (nM)]” value is reported as 105.2895.
The like results for `COc1ccc2c(c1)[C@]1(C[C@H]1c1ccc3c(Nc4cc(C(=O)N(C)C)cnc4OC)n[nH]c3c1)C(=O)N2` [Example 181, 6-methoxy-5-({6-[(1R,2S)-5′-methoxy-2′-oxo-1′,2′-dihydrospiro[cyclopropane-1,3′-indol]-2-yl]-1H-indazol-3-yl}amino)-N,N-dimethylpyridine-3-carboxamide] were, in that order, 7.58 nM, 2415.5227 and 3693.2418.
As for `COc1ccc2c(c1)[C@]1(C[C@H]1c1ccc3c(Nc4nc(N(C)C)ncc4C)n[nH]c3c1)C(=O)N2` [Example 182, (1R,2S)-2-(3-{[2-(dimethylamino)-5-methylpyrimidin-4-yl]amino}-1H-indazol-6-yl)-5′-methoxyspiro[cyclopropane-1,3′-indol]-2′(1′H)-one], the IC50 in experiment [1] amounted to 4.45 nM. Also, in experiment [2], the “[Aurora A IC50 (nM)]/[PLK4 IC50 (nM)]” value amounted to 53.6821. Moreover, the “[Aurora B IC50 (nM)]/[PLK4 IC50 (nM)]” value in experiment [3] is given as 198.8774.
Consider `COc1ccc2c(c1)[C@]1(C[C@H]1c1ccc3c(Nc4cc(F)c(C(=O)N(C)C)cc4OC)n[nH]c3c1)C(=O)N2` [Example 206, 2-fluoro-5-methoxy-4-({6-[(1R,2S)-5′-methoxy-2′-oxo-1’,2′-dihydrospiro[cyclopropane-1,3′-indol]-2-yl]-1H-indazol-3-yl}amino)-N,N-dimethylbenzamide], for which, in experiment [1], the half-maximal inhibitory concentration (IC50) is 0.806 nM. In experiment [2], the “[Aurora A IC50 (nM)]/[PLK4 IC50 (nM)]” value came out at 618.8586. Further, the “[Aurora B IC50 (nM)]/[PLK4 IC50 (nM)]” value in experiment [3] was 80.2233.
In the case of `COc1ccc2c(c1)[C@]1(C[C@H]1c1ccc3c(Nc4cc(F)c(C(=O)N5CCOCC5)cc4OC)n[nH]c3c1)C(=O)N2` [Example 207, (1R,2S)-2-{3-[5-fluoro-2-methoxy-4-(morpholine-4-carbonyl)anilino]-1H-indazol-6-yl}-5′-methoxyspiro[cyclopropane-1,3′-indol]-2′(1′H)-one], the IC50 in experiment [1] was found to be 0.952 nM. Also, the “[Aurora A IC50 (nM)]/[PLK4 IC50 (nM)]” value in experiment [2] is recorded as 497.3739. Moreover, the “[Aurora B IC50 (nM)]/[PLK4 IC50 (nM)]” value in experiment [3] is reported as 111.6597.
`COc1ccc2c(c1)[C@]1(C[C@H]1c1ccc3c(Nc4cc(N5CCCC5=O)cnc4OC)n[nH]c3c1)C(=O)N2` [Example 220, (1R,2S)-5′-methoxy-2-(3-{[2-methoxy-5-(2-oxopyrrolidin-1-yl)pyridin-3-yl]amino}-1H-indazol-6-yl)spiro[cyclopropane-1,3′-indol]-2′(1′H)-one]: in experiment [1], the half-inhibitory concentration (IC50) was 6.01 nM. Moreover, the “[Aurora A IC50 (nM)]/[PLK4 IC50 (nM)]” value in experiment [2] was 1042.4081. Also, the “[Aurora B IC50 (nM)]/[PLK4 IC50 (nM)]” value in experiment [3] is on record as 498.7527.
Turning to `COc1ccc2c(c1)[C@]1(C[C@H]1c1ccc3c(Nc4ncc(P(C)(C)=O)nc4OC)n[nH]c3c1)C(=O)N2` [Example 229, (1R,2S)-2-(3-{[5-(dimethylphosphoryl)-3-methoxypyrazin-2-yl]amino}-1H-indazol-6-yl)-5′-methoxyspiro[cyclopropane-1,3′-indol]-2′(1′H)-one], in experiment [1], the IC50 was found to be 7.85 nM. The “[Aurora A IC50 (nM)]/[PLK4 IC50 (nM)]” value in experiment [2] came out at 1669.4278. The “[Aurora B IC50 (nM)]/[PLK4 IC50 (nM)]” value in experiment [3] is given as 130.8780.
In the case of `COc1ccc2c(c1)[C@]1(C[C@H]1c1ccc3c(Nc4ncc(C(=O)N5CC(OC)C5)cc4OC)n[nH]c3c1)C(=O)N2` [Example 235, (1R,2S)-5′-methoxy-2-(3-{[3-methoxy-5-(3-methoxyazetidine-1-carbonyl)pyridm-2-yl]amino}-1H-indazol-6-yl)spiro[cyclopropane-1,3′-indol]-2′(1′H)-one], the IC50 in experiment [1] worked out at 2.17 nM. For the same compound, the “[Aurora A IC50 (nM)]/[PLK4 IC50 (nM)]” value in experiment [2] was determined as 2053.4808. In experiment [3], the “[Aurora B IC50 (nM)]/[PLK4 IC50 (nM)]” value worked out at 260.3503.
Turning to `COc1ccc2c(c1)[C@]1(C[C@H]1c1ccc3c(Nc4ncc(C(=O)N(C)C)nc4OC)n[nH]c3c1)C(=O)N2` [Example 236, 6-methoxy-5-({6-[(1R,2S)-5′-methoxy-2′-oxo-1′,2′-dihydrospiro[cyclopropane-1,3′-indol]-2-yl]-1H-indazol-3-yl}amino)-N,N-dimethylpyrazine-2-carboxamide], the 50% inhibitory concentration (IC50) in experiment [1] amounted to 2.26 nM. For the same compound, the “[Aurora A IC50 (nM)]/[PLK4 IC50 (nM)]” value in experiment [2] was 949.6021. Moreover, the “[Aurora B IC50 (nM)]/[PLK4 IC50 (nM)]” value in experiment [3] was 114.8983.
As for `CCOc1nc(C(=O)N(C)C)cnc1Nc1n[nH]c2cc([C@@H]3C[C@@]34C(=O)Nc3ccc(OC)cc34)ccc12` [Example 237, 6-ethoxy-5-({6-[(1R,2S)-5′-methoxy-2′-oxo-1′,2′-dihydrospiro[cyclopropane-1,3′-indol]-2-yl]-1H-indazol-3-yl}amino)-N,N-dimethylpyrazine-2-carboxamide], in experiment [1], the IC50 was 2.94 nM. Further, in experiment [2], the “[Aurora A IC50 (nM)]/[PLK4 IC50 (nM)]” value is listed as 3385.3211. Further, the “[Aurora B IC50 (nM)]/[PLK4 IC50 (nM)]” value in experiment [3] came out at 369.
`COc1ccc2c(c1)[C@]1(C[C@H]1c1ccc3c(Nc4cnc(P(C)(C)=O)cc4OC)n[nH]c3c1)C(=O)N2` [Example 249, (1R,2S)-2-(3-{[6-(dimethylphosphoryl)-4-methoxypyridin-3-yl]amino}-1H-indazol-6-yl)-5′-methoxyspiro[cyclopropane-1,3′-indol]-2′(1′H)-one]: the IC50 in experiment [1] amounted to 6.56 nM. For the same compound, the “[Aurora A IC50 (nM)]/[PLK4 IC50 (nM)]” value in experiment [2] amounted to 2585.7077. Moreover, the “[Aurora B IC50 (nM)]/[PLK4 IC50 (nM)]” value in experiment [3] is on record as 451.7751.
In the case of `COc1ccc2c(c1)[C@]1(C[C@H]1c1ccc3c(Nc4ccc(C(=O)NC(CF)CF)nc4OC)n[nH]c3c1)C(=O)N2` [Example 250, N-(1,3-difluoropropan-2-yl)-6-methoxy-5-({6-[(1R,2S)-5′-methoxy-2′-oxo-1′,2′-dihydrospiro[cyclopropane-1,3′-indol]-2-yl]-1H-indazol-3-yl}amino)pyridine-2-carboxamide], the concentration for half-maximal inhibition (IC50) in experiment [1] came to 6.19 nM. In experiment [2], the “[Aurora A IC50 (nM)]/[PLK4 IC50 (nM)]” value was 819.6509. For the same compound, the “[Aurora B IC50 (nM)]/[PLK4 IC50 (nM)]” value in experiment [3] came to 110.6011.
For `COc1ccc2c(c1)[C@]1(C[C@H]1c1ccc3c(Nc4cc5oc(C)nc5cc4Cl)n[nH]c3c1)C(=O)N2` [Example 252, (1R,2S)-2-{3-[(5-chloro-2-methyl-1,3-benzoxazol-6-yl)amino]-1H-indazol-6-yl}-5′-methoxyspiro[cyclopropane-1,3′-indol]-2′(1′H)-one], the concentration for half-maximal inhibition (IC50) in experiment [1] was found to be 9.28 nM. In addition, in experiment [2], the “[Aurora A IC50 (nM)]/[PLK4 IC50 (nM)]” value was determined as 518.4227. In experiment [3], the “[Aurora B IC50 (nM)]/[PLK4 IC50 (nM)]” value was 365.8694.
